Measurements from patent US10617677B2, “Nuclear transport modulators and uses thereof” (Biogen MA Inc., priority 2012, dated 2020).
Entries after “also recorded” stand apart in the source; their conditions may differ.

Assays:
NF-κB = NF-κB transcriptional activity in TNFα-induced HeLa cells; format: cell-based; settings: Homo sapiens, 1 h pre-treatment, then 4 h of 20 ng/mL TNFα, average of three experiments, read-out: IC50, inhibition of NF-κB transcriptional activity
Procedure: The compounds were tested on HeLa (adenocarcinoma) cells to quantify their ability to inhibit NF-κB transcriptional activity. NF-κB activity was induced in HeLa cells by TNFα, and then the compounds were added to inhibit the induced NF-κB activity. Half maximal inhibitory concentrations (IC50) of several compounds, namely Compound 1, Compound 2 and Compound 12, were determined by dose response studies.
HeLa cells were plated in a 12-well plate (200,000 cells/well) and cultured in Eagle's Minimal Essential medium (EMEM) from Lonza supplemented with 10% heat-inactivated fetal bovine serum (Invitrogen) and 50 μg/mL penicillin/streptomycin (Invitrogen), and were left overnight to attach. Cells were pre-treated with serial diluted (started at 30 µM; 1:3 dilution) compounds for 1 h and then exposed to 20 ng/mL TNFα (Peprotech) for 4 h in serum free media. After the treatment, the cells were washed with PBS (Invitrogen), and lysed with RIPA buffer (Themo Scientific). The transcription activity of NF-κB in the cells was measured by Chemiluminescent Transcription Factor Assay kit (Thermo Scientific Catalog #89859), according to the manufacturer's instruction. Briefly, 1.5 mg/mL of RIPA lysed whole cell extract from each treatment were incubated in a 96-well plate bound with NF-κB biotinylated-consensus sequence. The active NF-κB transcription factor bound to the consensus sequence was incubated with NF-κB p65 primary antibody and then with a secondary HRP-conjugated antibody. A chemiluminescent substrate was added to the wells and the resulting signal was detected using a luminometer. Three separate experiments were analyzed for each concentration of the IC50 curves. XLFit model 205 was used to calculate IC50 curves.
Inhibition of NF-κB transcriptional activity was measured by serial dilutions of Compound 1, Compound 2 and Compound 12 after 1 h of compound pre-treatment followed by 4 h of 20 ng/mL TNFα exposure. Three independent experiments were scored for each concentration, with the average being presented here.

[1] = system: collagen-induced arthritis; test: Collagen-induced arthritis (CIA) in Lewis rats; format: in vivo; settings: 4 mg/kg PO QoD from onset to day 28
Procedure: Forty (40) female Lewis rats (BK), aged 6 to 8 weeks with a pre-treatment body weight range of 180 to 200 g were divided randomly into four (4) groups (Groups A-D) of ten (10) rats each. The rats in Groups B to D were immunized intradermally with bovine CII in IFA at three sites near the base of the tail and over the back with 500 μL of the emulsion on day 0 (200 μL, 200 μL, 100 μL for each site). On day 7, the rats in Groups B-D were given booster injections with the same amount of the emulsion intradermally near the former injection sites. […] Rats were weighed daily and a drug holiday was given to an animal when a weight loss of greater than 13%. CIA development was evaluated via macroscopic scoring and measurements of paw swelling. […] Foot volume was measured by plethysmometry on the same day of the arthritic measurement throughout the study period. The cubage of each hind paw and swelling rate were measured and using the following equation: Swelling Rate=(CN−C0)/C0×100%. […] The clinical scores were summed for each animal, and the total average of all animals in each group was expressed as the mean arthritic score. […] Prepared sections of hind paws were subjected to hematoxylin and eosin (H&E) staining.

PMA-induced psoriasis = PMA-induced psoriasis in female BALB/c mice; format: in vivo; settings: 10 μM topical, daily
Procedure: Twenty-four (24) female BALB/c mice, aged 6 to 8 weeks with a body weight between 22 and 30 g were used. The mice were randomized into […]. The grouping of animals was as follows: Group I (Naïve; ethanol), Group II (PMA; ethanol), Group III (PMA; […] Twenty (20) μL of PMA (4 μg/20 μL of acetone) was applied topically on the upper surface of pinna of ear of all animals in Group II to Group IV. PMA was applied daily on left ear and on alternate days (M-W-F) on right ear from Day 1 to Day 9. Thirty (30) minutes after application of PMA, vehicle or standard compound (betamethasone) or Compound 2 was applied topically to the ears of animals from different groups. […] Animals were observed daily for a period of 12 days for any treatment related symptoms. Basal ear thickness was recorded in all animals (before application of PMA) using digital screw gauge at time T0 (Day 1). […] Commercially available 100% DMSO (LR Grade) and ethanol (LR Grade) were used to prepare the formulations. PMA was prepared by dissolving 10 mg of PMA in 50.0 mL of acetone. Compound 2 was prepared by dissolving 1.47 mg of Compound 2 in 300 μL of 100% DMSO.

IMQ-induced psoriasis = test: Imiquimod (IMQ)-induced dermal inflammation/psoriasis model, Study 1; format: in vivo, mice; settings: 1 μM, Day 1 to Day 13 daily
Source text: Forty (40) male BALB/c mice aged 6 to 8 weeks were used with a pretreatment body weight of 22 to 30 g. The BALB/c mice were randomized into four (4) groups of 10 mice per group. A small area (about 2×2 cm^2) of skin on the dorsum of all the animals was neatly shaved. Group-I animals served as Naïve animals. Psoriasis was induced in Groups II to IV [Group II (IMQ; vehicle), Group III (IMQ; […] Animals were observed daily for a period of 13 days for any treatment-related symptoms. The daily observations included body weight, feed intake, skin thickening, scaling, folding, erythema, nasal discharge, movement, respiration, hair, distended abdomen, skin condition, fur, mucous membrane, presence or absence of secretions, eye condition, tail elevation, motor activity, posture and gait. Severity of damage to the dorsal portion of the skin was assessed by assigning erythema, scaling, folding and skin thickening scores based on external observations of skin, according to rubric in Table 9. […] Compound 2 was prepared by dissolving 1.47 mg of Compound 2 in 300 μL of 100% DMSO.

| IC50 (NF-κB) [nM] | Structure (SMILES) | Clinical Scores, Joint Swelling and histological examination [1] | histopathology of hind paws (H&E) [1] | anti-psoriatic activity (PMA-induced psoriasis) | left and right ear disease activity index (DAI) (PMA-induced psoriasis) | left and right ear thickness (PMA-induced psoriasis) | body weight, food and water intake (IMQ-induced psoriasis) | disease activity index / IMQ-induced disease manifestation (IMQ-induced psoriasis) |
| --- | --- | --- | --- | --- | --- | --- | --- | --- |
| 1590 | CC(C)(C)C(=O)NNC(=O)/C=C\n1cnc(-c2cc(C(F)(F)F)cc(C(F)(F)F)c2)n1 [Compound 1, (Z)-3-(3-(3,5-bis(trifluoromethyl)phenyl)-1H-1,2,4-triazol-1-yl)-N′-pivaloylacrylohydrazide] |  |  |  |  |  |  |  |
| 1220 | O=C(/C=C\n1cnc(-c2cc(C(F)(F)F)cc(C(F)(F)F)c2)n1)NNC(=O)CN1CCOCC1 [Compound 2, (Z)-3-(3-(3,5-bis(trifluoromethyl)phenyl)-1H-1,2,4-triazol-1-yl)-N′-(2-morpholinoacetyl)acrylohydrazide] | therapeutic efficacy | relatively intact cartilage was found on the joint surface and pannus formation was minimal | statistically significant anti-psoriatic activity | prominent reduction in PMA-induced increases | prominent reduction in PMA-induced increases | without adversely affecting body weight, food and water intake | diminished IMQ-induced disease manifestation; also recorded: reduction in disease activity index in comparison to the vehicle treated group |
